Measured values from patent publication US9327025B2, “Enriched 10-boron composition for cancer therapy and a method of synthesizing the same” (priority 2012, dated 2016).
Where two headings read alike, the source gives them in different places.

Experiments:
[1] = test system: MDA-MB241 cell line (malignant breast cells); settings: 24 hours
Procedure: MTT assay method was applied for evaluating the effects of Boron complex on MDA-MB241 cell line (malignant breast cells) in in vitro environment.
This is due to the fact that since food composition was used in the synthesis of the drug, tumor cells think that they are provided with food compostions. But after a while the number of cells will decrease by the drug. For different concentrations of Boron including 5 mg, 10 mg, 25 mg, 50 mg and 100 mg, these decreases are equal to 80, 50, 64, 79, and 36. After 48 hours similar results with little differences have been observed with 24 hours time interval.

[2] = cancerous mice; in vitro and in vivo tests
Source text: In this research, a new smart drug, Enriched Boron-10 Calcium Fructo Borate (E^10BCFB), was investigated for using in cancer cells treatment in BNCT methods. […] E^10BCFB is in fact an artificial Calcium Fructo-Borate which is synthesized chemically with 10-Boron.

[3] = test system: breast cancer cells MDA-MB-231

Q: What does the source list for “Enriched 10-Boron Calcium Fructo Borate [E^10BCFB]”?
A: decrease of the number of cells (MTT) ([1]; concentration of Boron 5 mg): 80; decrease of the number of cells (MTT) ([1]; concentration of Boron 10 mg): 50; decrease of the number of cells (MTT) ([1]; concentration of Boron 25 mg): 64; decrease of the number of cells (MTT) ([1]; concentration of Boron 50 mg): 79; decrease of the number of cells (MTT) ([1]; concentration of Boron 100 mg): 36; concentration ratio of tumor to the 10-Boron concentration in the blood (3 hours after injection of 41.1 mg complex per 30 gram animal weight): about 4.5; concentration of 10-Boron in the blood (3 hours after intraperitoneal injection of 41.1 mg complex per 30 gram animal weight, blood): about 6.1 ppm; accumulation of 10-Boron in tumor cells (3 hours after intraperitoneal injection of 41.1 mg complex per 30 gram animal weight, tumor): about 27 ppm; safety of the drug [2]: safe; growth of breast cancer cells ([3]; MDA-MB-231): prevents the growth of breast cancer cells; Caspase-3 activity ([3]; tumor cells treated with the drug): increases the Caspase-3 activity
